Measurements reported in US11124785B2, “Rothia subtilisins, S8A family proteases, as therapeutic enzymes for application in gluten intolerance disorders” (TRUSTEES OF BOSTON UNIVERSITY, priority 2016, dated 2021).

Key:
Format in all cases: biochemical
Z-PPF-pNA = test: Hydrolysis of paranitroanilide-derivatized substrate Z-PPF-pNA; details: fifty-fold increased enzyme concentrations (data not shown)
Description: (§1) Hydrolysis of paranitroanilide-derivatized substrates—Paranitroanilide (pNA)-derivatized tripeptide substrates were chemically synthesized at >90% purity (21st Century Biochemicals, Marlborough, Mass.). The substrates obtained were Z-YPQ-pNA, Z-QQP-pNA, Z-LPY-pNA, Z-PFP-pNA, Z-PPF-pNA, where Z=benzyloxycarbonyl, Y=tyrosine, P=proline, Q=glutamine, L=leucine, and F=phenylalanine Suc-AAPF-pNA (SEQ ID NO: 4) was obtained from Sigma, where Suc=N-succinyl and A=alanine. The peptides were dissolved in 75-100% DMSO at 10 mM, and were used at a final concentration of 200 μM in 50 mM TrisHCl pH 8.0. Purified Rothia enzyme or subtilisin A from Bacillus licheniformis (Sigma) were tested at final concentrations of 1 μg/ml. Some experiments were conducted in the presence of inhibitors 4-(2-Aminoethyl) benzenesulfonyl fluoride (AEBSF), Aprotinin, E-64, EDTA, phenylmethanesulfonyl fluoride (PMSF) and Eglin C, which were tested at final concentrations of 10 mM, 0.08 mM, 0.1 mM, 1.5 mM, 1 mM, and 0.06-1.2 μM, respectively. Enzymes were preincubated with the inhibitors for 20 min before adding Suc-AAPF-pNA (SEQ ID NO: 4). Substrate hydrolysis was monitored for 10 h at 405 nm using a Genios microtiter plate reader (Tecan, Männedorf, Switzerland) in the kinetic mode at 37° C.

Z-YPQ-pNA = test: Hydrolysis of paranitroanilide-derivatized substrate Z-YPQ-pNA; details: substrate 200 μM, enzyme 1 μg/ml, pH 8.0; second most rapid after Suc-AAPF-pNA
Description: (§2) FIG. 4A and FIG. 4B are representative graphs of the hydrolysis of the substrates: Suc-AAPF-pNA (SEQ ID NO: 4), Z-YPQ-pNA, and Z-LPY-pNA, each at 200 μM, by Rmep and subtilisin A, respectively, each at 1 μg/ml.
as §1, with “Enzymes were preincubated with the inhibitors for 20 min before adding Suc-AAPF-pNA (SEQ ID NO: 4).” left out

[1] = system: G12 epitopes (QPQLPY) in mixed gliadins; test: G12 ELISA, gluten epitope elimination in gliadin digests; details: gliadins 250 μg/ml, enzyme 57 μg/ml
Description: FIG. 8E and FIG. 8F show the assessment of the survival of epitopes in the gliadin-NattoK degradation mixture employing the R5 ELISA (FIG. 8E) or G12 ELISA (FIG. 8F) assays. Epitope abolishment in Mixed gliadins (250 μg/ml) were incubated with NattoK (57 μg/ml) for 0, 15, 30 and 120 min and then assayed by the R5 ELISA or G12 ELISA.
R5 and G12 ELISA assays—Gluten epitope elimination in the gliadin-Rmep and gliadin-subtilisin A digests was assessed using two sandwich ELISA assays employing the R5 monoclonal antibody (RIDASCREEN Gliadin, R-Biopharm, Darmstadt, Germany) or the G12 monoclonal antibody (AgraQuant® ELISA Gluten G12, Romer labs, Union, Mo.). To prevent high background values, the R5 plate wells were blocked with 1% skim milk in PBS prior to incubation with the samples. The assays were performed according to the manufacturers' instructions and as described (21, 24).
To further investigate this, the time courses of degradation of mixed gliadins and the highly immunogenic 33-mer α-gliadin peptide were determined. Furthermore, epitope elimination was monitored by two ELISA assays employing the R5 antibody recognizing QQPFP (SEQ ID NO: 40) and related pentapeptides (27, 28) and the G12 antibody recognizing QPQLPY (SEQ ID NO: 22) contained in the 33-mer peptide (29, 30). Data obtained with Rmep are shown in FIG. 5, and with subtilisin A in FIG. 6.

Suc-AAPF-pNA = test: Hydrolysis of paranitroanilide-derivatized substrate Suc-AAPF-pNA; details: substrate 200 μM; enzyme 1 μg/ml (NattoK: dilution series); 50 mM TrisHCl pH 8.0, 37° C.
Description: as §2
FIG. 8C show a representative graph of the hydrolysis of the substrate, Suc-AAPF-pNA (SEQ ID NO: 4), with a dilution series of NattoK. Suc-AAPF-pNA (SEQ ID NO: 4) was incubated […]. Hydrolysis was measured at 405 nm.
as §1

Z-PFP-pNA = test: Hydrolysis of paranitroanilide-derivatized substrate Z-PFP-pNA; details: substrate 200 μM, pH 8.0 (data not shown)
Description: as §1

FRET substrate PQPQPQ = test: FRET substrate hydrolysis, PQPQPQ; details: substrate 100 μM, Rmep 1 μg/ml, subtilisin A 0.5 μg/ml, pH 8.0
Description: FIG. 4D and FIG. 4E are representative graphs of the hydrolysis of gliadin-derived FRET substrates. FRET substrates containing QPQLPY (SEQ ID NO: 22), PQPQPQ (SEQ ID NO: 23) and QGSFQP (SEQ ID NO: 24), each at 100 μM, were incubated with Rmep […] and subtilisin A (FIG. 4E), at 1 μg/ml and 0.5 μg/ml, respectively. Controls were boiled Rmep and subtilisin A incubated with PQPQLPY (+) (SEQ ID NO: 25), PQPQPQ (⋄) (SEQ ID NO: 23) and QGSFQP (*) (SEQ ID NO: 24) (no activity, baseline).
FRET substrate hydrolysis—Three fluorescence resonance energy transfer (FRET) substrates comprising the hexapeptides QPQLPY (SEQ ID NO: 22), PQPQPQ (SEQ ID NO: 23) and QGSFQP (SEQ ID NO: 24) were synthesized with at the N-terminus the HILYTE FLUOR™ 488 label, and at the C-terminus with K(QXL520) (Anaspec, Fremont, Calif.). Rmep (1 μg/ml) and subtilisin A (0.5 μg/ml) were incubated with the substrates (100 μM) in 50 mM TrisHCl pH 8.0. Samples were incubated at 37° C. and fluorescence increase, indicating hydrolysis, was measured every 5 min for 30 min, and every 10 min for the next 30 min, at λex 485 nm and λem 520 nm, using a Genios microtiter plate reader in the kinetic mode.

Row | Molecule | hydrolysis of Z-PPF-pNA (Z-PPF-pNA) | hydrolysis of Z-YPQ-pNA (Z-YPQ-pNA) | decrease of G12 antibody binding after 30 min ([1]; 30 min) [%] | reduction of G12 antibody binding / G12 epitope degradation after 2 h [1] [%] | hydrolysis of Suc-AAPF-pNA (Suc-AAPF-pNA) | hydrolysis of Z-PFP-pNA (Z-PFP-pNA) | hydrolysis of FRET substrate PQPQPQ (FRET substrate PQPQPQ) | G12 epitope degradation at t=0 ([1]; t=0) [%]
1 | Rmep: DEAE pooled fraction F2 of R. mucilaginosa ATCC 25296 extract with highest gluten-degrading enzyme activity; contains subtilisins C6R5V9_9MICC and C6R5W1_9MICC | not | cleaved | 65 | 85 | cleaved most rapidly | not hydrolyzed | rapidly hydrolyzed | 
2 | subtilisin A: subtilisin A from Bacillus licheniformis (Sigma) (protein, listed as Bacillus licheniformis) MMRKKSFWLGMLTAFMLVFTMAFSDSASAAQPAKNVEKDYIVGFKSGVKTASVKKDIIKESGGKVDKQFRIINAAKAKLDKEALKEVKNDPDVAYVEEDHVAHALAQTVPYGIPLIKADKVQAQGFKGANVKVAVLDTGIQASHPDLNVVGGASFVAGEAYNTDGNGHGTHVAGTVAALDNTTGVLGVAPSVSLYAVKVLNSSGSGTYSGIVSGIEWATTNGMDVINMSLGGPSGSTAMKQAVDNAYARGVVVVAAAGNSGSSGNTNTIGYPAKYDSVIAVGAVDSNSNRASFSSVGAELEVMAPGAGVYSTYPTSTYATLNGTSMASPHVAGAAALILSKHPNLSASQVRNRLSSTATYLGSSFYYGKGLINVEAAAQ | hydrolyzed | cleaved |  | 45 | cleaved most rapidly | not hydrolyzed | highest activity | 22
